Source: EPA's ToxRefDB 2

What was measured:
dog [1] = conditions: Chronic toxicity, beagle, Oral, Gavage/Intubation, dose end: 274 day, group: systemic
rat [2] = conditions: Sub-acute repeat dose toxicity; Oral; Gavage/Intubation; dose end: 7 day; group: systemic; systemic / clinical chemistry / cholesterol / cholesterol + systemic / clinical chemistry / gamma glutamyl transferase (ggt) / gamma …
mouse [3] = conditions: Chronic toxicity, Oral, Gavage/Intubation, dose end: 186 day, group: systemic
rat [4] = conditions: Sub-acute repeat dose toxicity; Oral; Feed; dose end: 14 day; group: systemic; systemic / in life observation / clinical signs / defecation + systemic / in life observation / clinical signs / hunched posture + systemic…
mouse [5] = conditions: Sub-acute repeat dose toxicity, Oral, Gavage/Intubation, dose end: 30 day, group: systemic
dog [6] = conditions: Subchronic oral toxicity in nonrodent, beagle, Gavage/Intubation, dose end: 90 day, group: systemic
mouse [7] = conditions: Fertility (Segment I), Oral, Gavage/Intubation, dose end: 1 generation
rat [8] = conditions: Sub-acute repeat dose toxicity; Oral; Gavage/Intubation; dose end: 7 day; group: systemic; systemic / clinical chemistry / globulins / globulins + systemic / clinical chemistry / bilirubin / total bilirubin + systemic / organ …
rabbit [9] = conditions: Sub-acute repeat dose toxicity, Oral, Gavage/Intubation, dose end: 7 day, group: systemic
mouse [10] = conditions: Sub-acute repeat dose toxicity; Oral; Feed; dose end: 14 day; group: systemic; systemic / in life observation / clinical signs / [other] + systemic / in life observation / clinical signs / anogenital staining + systemic…
mouse [11] = conditions: Sub-acute repeat dose toxicity, Oral, Gavage/Intubation, dose end: 7 day, group: systemic
rat [12] = conditions: Sub-acute repeat dose toxicity, Oral, Gavage/Intubation, dose end: 14 day, group: systemic
mouse [13] = conditions: Subchronic oral toxicity in rodents, cd1, Gavage/Intubation, dose end: 13 week, group: systemic, systemic / clinical chemistry / alanine aminotransferase (alt/sgpt) / alanine aminotransferase (alt/sgpt) + systemic / clinical chemistry / …
mouse [14] = conditions: Sub-acute repeat dose toxicity, cd1, Oral, Gavage/Intubation, dose end: 4 week, group: systemic
rat [15] = conditions: Prenatal developmental toxicity study, sprague dawley, Oral, Gavage/Intubation, dose end: 17 GD
rat [16] = conditions: Fertility (Segment I), sprague dawley, Oral, Gavage/Intubation, dose end: 7 GD
rat [17] = conditions: Prenatal developmental toxicity study, sprague dawley, Oral, Gavage/Intubation, dose end: 17 GD, group: maternal
rabbit [18] = conditions: Prenatal developmental toxicity study, new zealand white, Oral, Gavage/Intubation, dose end: 19 GD
[19] = systemic / in life observation / clinical signs / defecation (diarrhea) + systemic / in life observation / clinical signs / soft stools
[20] = systemic / in life observation / clinical signs / defecation (diarrhea) + systemic / in life observation / clinical signs / soft stools + …
[21] = systemic / clinical chemistry / alkaline phosphatase (alp/alk) / alkaline phosphatase (alp/alk) + systemic / clinical chemistry / …
[22] = systemic / clinical chemistry / bilirubin / total bilirubin + systemic / in life observation / body weight / body weight + systemic / organ …
[23] = systemic / clinical chemistry / alanine aminotransferase (alt/sgpt) / alanine aminotransferase (alt/sgpt) + systemic / clinical chemistry / …
[24] = systemic / organ weight / liver / absolute + systemic / pathology microscopic / liver / hypertrophy
[25] = systemic / clinical chemistry / alkaline phosphatase (alp/alk) / alkaline phosphatase (alp/alk)
[26] = group: maternal, reproductive / reproductive performance / mating / mating + reproductive / reproductive performance / precoital interval / precoital …
[27] = group: parental, systemic / in life observation / body weight / body weight gain
[28] = systemic / in life observation / body weight / body weight + systemic / in life observation / clinical signs / tachypnea + systemic / in …
[29] = systemic / clinical chemistry / creatinine / creatinine + systemic / clinical chemistry / potassium / potassium + systemic / in life …
[30] = systemic / organ weight / liver / absolute
[31] = systemic / clinical chemistry / cytochrome p450, nos / cytochrome p450, nos + systemic / clinical chemistry / glucose / glucose + systemic…
[32] = systemic / clinical chemistry / cytochrome p450, nos / cytochrome p450, nos + systemic / in life observation / clinical signs / lacrimation …
[33] = systemic / in life observation / clinical signs / alopecia + systemic / in life observation / clinical signs / scabbing + systemic / organ …
[34] = systemic / organ weight / liver / absolute + systemic / organ weight / liver / relative to body weight + systemic / pathology gross / lung…
[35] = group: developmental, systemic / in life observation / body weight / fetal weight
[36] = group: maternal, reproductive / reproductive performance / implantations / implantations + reproductive / reproductive performance / postimplantation loss / …
[37] = group: maternal, systemic / in life observation / body weight / body weight + systemic / in life observation / clinical signs / piloerection + systemic / in …
[38] = group: maternal, reproductive / offspring survival early / litter viability other / total litter loss + reproductive / reproductive performance / estrous …
[39] = group: maternal, reproductive / reproductive performance / fertility / fertility + reproductive / reproductive performance / precoital interval / precoital …
[40] = group: parental, systemic / in life observation / clinical signs / alopecia + systemic / in life observation / body weight / body weight gain + systemic / in…
[41] = reproductive / reproductive performance / implantations / implantations + reproductive / reproductive performance / postimplantation loss / …
[42] = systemic / in life observation / body weight / body weight + systemic / in life observation / body weight / body weight gain + systemic / in…
[43] = group: maternal, systemic / in life observation / body weight / body weight gain + systemic / in life observation / clinical signs / defecation + systemic / …

Compound: CCc1nn(CCO)c(CC)c1Oc1cc(C#N)cc(C#N)c1 [Lersivirine]
- LEL (dog [1]; [19]): 5 mg/kg/day
- NEL (dog [1]; [19]): < 5 mg/kg/day
- LOAEL (dog [1]; [20]): > 45 mg/kg/day
- NOAEL (dog [1]; [20]): ≥ 45 mg/kg/day
- LOAEL (rat [2]): > 35 mg/kg/day
- NEL (rat [2]): < 35 mg/kg/day
- NOAEL (rat [2]): ≥ 35 mg/kg/day
- LEL (mouse [3]; [21]): 70 mg/kg/day
- NEL (mouse [3]; [21]): < 70 mg/kg/day
- LOAEL (mouse [3]; [22]): > 700 mg/kg/day
- NOAEL (mouse [3]; [22]): ≥ 700 mg/kg/day
- LOAEL (rat [4]): > 1500 mg/kg/day
- NEL (rat [4]): 750 mg/kg/day
- NOAEL (rat [4]): ≥ 1500 mg/kg/day
- LOAEL (mouse [5]; [23]): > 500 mg/kg/day
- NOAEL (mouse [5]; [23]): ≥ 500 mg/kg/day
- LEL (mouse [5]; [24]): 50 mg/kg/day
- NEL (mouse [5]; [24]): < 50 mg/kg/day
- LOAEL (dog [6]; [23]): > 60 mg/kg/day
- NOAEL (dog [6]; [23]): ≥ 60 mg/kg/day
- LEL (dog [6]; [25]): 7 mg/kg/day
- NEL (dog [6]; [25]): < 7 mg/kg/day
- LEL (mouse [7]; [26]): 700 mg/kg/day
- LOAEL (mouse [7]; [26]): > 700 mg/kg/day
- NEL (mouse [7]; [26]): 200 mg/kg/day
- NOAEL (mouse [7]; [26]): ≥ 700 mg/kg/day
- LEL (mouse [7]; [27]): 200 mg/kg/day
- LOAEL (mouse [7]; [27]): > 700 mg/kg/day
- NEL (mouse [7]; [27]): 70 mg/kg/day
- NOAEL (mouse [7]; [27]): ≥ 700 mg/kg/day
- LOAEL (rat [8]): > 150 mg/kg/day
- NEL (rat [8]): < 150 mg/kg/day
- NOAEL (rat [8]): ≥ 150 mg/kg/day
- LOAEL (rabbit [9]; [28]): > 500 mg/kg/day
- NEL (rabbit [9]; [28]): 20 mg/kg/day
- NOAEL (rabbit [9]; [28]): ≥ 500 mg/kg/day
- LEL (rabbit [9]; systemic / in life observation / clinical signs / tachypnea + systemic / in life observation / food consumption / food consumption): 200 mg/kg/day
- LOAEL (mouse [10]): > 3000 mg/kg/day
- NEL (mouse [10]): 750 mg/kg/day
- NOAEL (mouse [10]): ≥ 3000 mg/kg/day
- LOAEL (mouse [11]; [29]): > 750 mg/kg/day
- NOAEL (mouse [11]; [29]): ≥ 750 mg/kg/day
- LEL (mouse [11]; [30]): 70 mg/kg/day
- NEL (mouse [11]; [30]): < 70 mg/kg/day
- LOAEL (rat [12]; [31]): > 300 mg/kg/day
- NOAEL (rat [12]; [31]): ≥ 300 mg/kg/day
- LEL (rat [12]; [32]): 20 mg/kg/day
- NEL (rat [12]; [32]): < 20 mg/kg/day

Compound: CCc1c(C(=O)NN2CCCCC2)nn(-c2ccc(Cl)cc2Cl)c1-c1ccc(Br)cc1 [Surinabant]
- LEL (mouse [13]): 100 mg/kg/day
- LOAEL (mouse [13]): > 1000 mg/kg/day
- NEL (mouse [13]): < 100 mg/kg/day
- NOAEL (mouse [13]): ≥ 1000 mg/kg/day
- LOAEL (mouse [14]; [33]): > 4000 mg/kg/day
- NOAEL (mouse [14]; [33]): ≥ 4000 mg/kg/day
- LEL (mouse [14]; [34]): 1000 mg/kg/day
- NEL (mouse [14]; [34]): < 1000 mg/kg/day
- LEL (rat [15]; [35]): 100 mg/kg/day
- LOAEL (rat [15]; [35]): 100 mg/kg/day
- NEL (rat [15]; [35]): 10 mg/kg/day
- NOAEL (rat [15]; [35]): 10 mg/kg/day
- LOAEL (rat [15]; [36]): 100 mg/kg/day
- NOAEL (rat [15]; [36]): 10 mg/kg/day
- LEL (rat [15]; [37]): 10 mg/kg/day
- NEL (rat [15]; [37]): < 10 mg/kg/day
- LOAEL (rat [16]; [38]): > 1000 mg/kg/day
- NOAEL (rat [16]; [38]): ≥ 1000 mg/kg/day
- LEL (rat [16]; [39]): 10 mg/kg/day
- NEL (rat [16]; [39]): < 10 mg/kg/day
- LEL (rat [16]; [40]): 10 mg/kg/day
- LOAEL (rat [16]; [40]): > 1000 mg/kg/day
- NEL (rat [16]; [40]): < 10 mg/kg/day
- NOAEL (rat [16]; [40]): ≥ 1000 mg/kg/day
- LOAEL (rat [17]; [41]): > 100 mg/kg/day
- NOAEL (rat [17]; [41]): ≥ 100 mg/kg/day
- LEL (rat [17]; [42]): 10 mg/kg/day
- NEL (rat [17]; [42]): < 10 mg/kg/day
- LEL (rabbit [18]; [35]): 1 mg/kg/day
- LOAEL (rabbit [18]; [35]): > 20 mg/kg/day
- NEL (rabbit [18]; [35]): < 1 mg/kg/day
- NOAEL (rabbit [18]; [35]): ≥ 20 mg/kg/day
- LEL (rabbit [18]; [43]): 1 mg/kg/day
- LOAEL (rabbit [18]; [43]): > 20 mg/kg/day
- NEL (rabbit [18]; [43]): < 1 mg/kg/day
- NOAEL (rabbit [18]; [43]): ≥ 20 mg/kg/day
